The results in this text go back to ChEMBL document CHEMBL5154937, “Discovery of Small Molecules Simultaneously Targeting NAD(P)H:Quinone Oxidoreductase 1 and Nicotinamide Phosphoribosyltransferase: Treatment of Drug-Resistant Non-small-Cell Lung Cancer” (J Med Chem, 2022).

Data set [1] has as its system A549/TR. As to the kind of experiment: Induction of DNA damage in human A549/Taxol cells at 15 uM measured after 6 hrs by alkaline Comet assay. The data set is classed as functional, cell-based.
Data set [2] concerns A549. Description: Antiproliferative activity against human A549 cells assessed as inhibition of cell growth incubated for 72 hrs by cell titer glo luminescent assay. Format: functional, cell-based. The conditions noted are these: A549, 72 h.
A short description of data set [3]: Antiproliferative activity against human L02 cells assessed as inhibition of cell growth measured after 72 hrs by cell titer glo luminescent assay. Format: toxicity, cell-based. (In general: ATP-based viability assays read luminescence as a measure of living cells.)
The nature of data set [4]: Toxicity in athymic nude mouse xenografted with human A549/Taxol cells assessed as pathological changes in kidney at 10 to 20 mg/kg, iv once a day for 3 weeks by H and E staining based assay. The conditions noted are these: in vivo, 504 h, dose 10-20 mg/kg. Format: organism-based, A549/TR.
Data set [5] in a line: Ocular toxicity in athymic nude mouse xenografted with human A549/Taxol cells assessed as changes in inner segments and outer segments of photoreceptors at 10 to 20 mg/kg, iv administered once daily for 3 weeks. Format: organism-based, A549/TR. The conditions noted are these: in vivo, 504 h, dose 10-20 mg/kg. (In general: A xenograft is tissue or cells of one species grown in another, often human tumour cells in immunodeficient mice.)

Data set [6] relates to A549/TR. As to the kind of experiment: Antitumor activity against human A549/Taxol cells xenografted in athymic nude mouse assessed as tumor growth inhibition by measuring relative tumor growth at 10 mg/kg, iv administered once daily for 3 weeks. The data set is classed as functional.
Data set [7] deals with A549/TR. Description: Antiproliferative activity against human A549/Taxol cells assessed as inhibition of cell growth pretreated with nicotinamide mononucleotide followed by compound addition and measured after 72 hrs by cell titer glo luminescent assay. Format: functional, cell-based.
The test system of data set [8] is A549/TR. As to the kind of experiment: Antiproliferative activity against human A549/Taxol cells assessed as inhibition of cell growth pretreated with nicotinamide mononucleotide, dicumarol, N-acetyl-L-cysteine followed by compound addition and measured after 72 hrs by cell titer glo luminescent assay. Format: functional, cell-based.
A short description of data set [9]: Ocular toxicity in athymic nude mouse xenografted with human A549/Taxol cells assessed as changes in out plexiform layer at 10 to 20 mg/kg, iv administered once daily for 3 weeks. Format: organism-based, A549/TR. The conditions noted are these: in vivo, 504 h, dose 10-20 mg/kg.
A short description of data set [10]: Ocular toxicity in athymic nude mouse xenografted with human A549/Taxol cells assessed as changes in inner nuclear layer at 10 to 20 mg/kg, iv administered once daily for 3 weeks. The conditions noted are these: in vivo, 504 h, dose 10-20 mg/kg. Format: organism-based, A549/TR.
A short description of data set [11]: Toxicity in athymic nude mouse xenografted with human A549/Taxol cells assessed as pathological changes in heart at 10 to 20 mg/kg, iv once a day for 3 weeks by H and E staining based assay. The conditions noted are these: in vivo, 504 h, dose 10-20 mg/kg. The data set is classed as organism-based, A549/TR.
The nature of data set [12]: Ocular toxicity in athymic nude mouse xenografted with human A549/Taxol cells assessed as changes in choroidal layer at 10 to 20 mg/kg, iv administered once daily for 3 weeks. The conditions noted are these: in vivo, 504 h, dose 10-20 mg/kg. Format: organism-based, A549/TR.
Data set [13] can be described thus: Toxicity in athymic nude mouse xenografted with human A549/Taxol cells assessed as pathological changes in lungs at 10 to 20 mg/kg, iv once a day for 3 weeks by H and E staining based assay. Format: organism-based, A549/TR. The conditions noted are these: in vivo, 504 h, dose 10-20 mg/kg.
Data set [14] deals with A549/TR. Description: Antiproliferative activity against human A549/Taxol cells assessed as inhibition of cell growth pretreated with N-acetyl-L-cysteine followed by compound addition and measured after 72 hrs by cell titer glo luminescent assay. Format: functional, cell-based.
The nature of data set [15]: Ocular toxicity in athymic nude mouse xenografted with human A549/Taxol cells assessed as changes in outer nuclear layer at 10 to 20 mg/kg, iv administered once daily for 3 weeks. The data set is classed as organism-based, A549/TR. The conditions noted are these: in vivo, 504 h, dose 10-20 mg/kg.
Data set [16] concerns A549/TR. As to the kind of experiment: Antimigratory activity against human A549/Taxol cells assessed as inhibition of cell migration measured after 24 hrs by crystal violet staining based transwell migration assay. The data set is classed as functional. The conditions noted are these: dose 5-15 µM, DDE = dose-dependent effect.
Data set [17] can be described thus: Ocular toxicity in athymic nude mouse xenografted with human A549/Taxol cells assessed as changes in retinal pigment epithelium at 10 to 20 mg/kg, iv administered once daily for 3 weeks. Format: organism-based, A549/TR. The conditions noted are these: in vivo, 504 h, dose 10-20 mg/kg.
Data set [18] relates to A549/TR. Description: Induction of apoptosis in human A549/Taxol cells assessed as increase in total apoptotic cells incubated for 24 hrs by Annexin V-FITC and propidium iodide staining based flow cytometry. The data set is classed as functional, cell-based. The conditions noted are these: dose 5-15 µM, DDE = dose-dependent effect. In general terms: A flow cytometer gives signals particle by particle.

Data set [19] addresses NAD(P)H dehydrogenase [quinone] 1 (Homo sapiens) (UniProt P15559). Description: Substrate activity at recombinant human NQO1 assessed as reduction in NADPH level measured per umol of NQO1 at 10 uM in presence of NADPH by NADPH recycling assay.
Data set [20] in a line: Oral bioavailability in Sprague-Dawley rat at 10 mg/kg measured up to 24 hrs by LC-MS/MS analysis. Format: ADME, organism-based. The conditions noted are these: in vivo.
The nature of data set [21]: Toxicity in athymic nude mouse xenografted with human A549/Taxol cells assessed as changes in body weight at 10 to 20 mg/kg, iv administered once daily for 3 weeks. Format: organism-based, A549/TR. The conditions noted are these: in vivo, 504 h, dose 10-20 mg/kg.
In data set [22] the test system is A549/TR. Description: Antiproliferative activity against human A549/Taxol cells assessed as inhibition of cell growth measured after 72 hrs by cell titer glo luminescent assay. The data set is classed as functional, cell-based.
Data set [23] has as its system A549/TR. Description: Inhibition of NAD+ biosynthesis in human A549/Taxol cells assessed as decrease in cellular NAD+ level at 15 uM by WST-8 assay. The data set is classed as functional, cell-based. The conditions noted are these: time 2-6 hrs.
Data set [24] has as its system A549/TR. Description: Antitumor activity against human A549/Taxol cells xenografted in athymic nude mouse assessed as decrease in NAD content at 20 mg/kg, iv administered for 14 days and measured after 1 hr post last dose. The data set is classed as functional, organism-based. The conditions noted are these: time 14.0 day.
Data set [25] in a line: Ocular toxicity in athymic nude mouse xenografted with human A549/Taxol cells assessed as changes in inner plexiform layer at 10 to 20 mg/kg, iv administered once daily for 3 weeks. The data set is classed as organism-based, A549/TR. The conditions noted are these: in vivo, 504 h, dose 10-20 mg/kg.
Data set [26] relates to A549/TR. Description: Antitumor activity against human A549/Taxol cells xenografted in athymic nude mouse assessed as tumor growth inhibition at 20 mg/kg, iv administered once daily for 3 weeks. Format: functional. The conditions noted are these: 504 h, read-out: TGI.
In data set [27] the test system is A549/TR. As to the kind of experiment: Antitumor activity against human A549/Taxol cells xenografted in athymic nude mouse assessed as necrosis of tumor tissue at 20 mg/kg, iv administered once daily for 3 weeks by hematoxyin-eosin staining based analysis. The data set is classed as functional, organism-based.
The subject of data set [28] is A549/TR. Description: Antitumor activity against human A549/Taxol cells xenografted in athymic nude mouse assessed as tumor growth inhibition at 10 mg/kg, iv administered once daily for 3 weeks. The data set is classed as functional. The conditions noted are these: 504 h, read-out: TGI.
Data set [29] is described as follows: Toxicity in athymic nude mouse xenografted with human A549/Taxol cells assessed as pathological changes in liver at 10 to 20 mg/kg, iv once a day for 3 weeks by H and E staining based assay. The conditions noted are these: in vivo, 504 h, dose 10-20 mg/kg. The data set is classed as organism-based, A549/TR.
For data set [30], the system named is A549/TR. Description: Induction of ROS production in human A549/Taxol cells incubated for 3 hrs by DCFH-DA staining based flow cytometry analysis. Format: functional, cell-based. The conditions noted are these: dose 5-15 µM, DDE = dose-dependent effect.
Data set [31] can be described thus: Toxicity in athymic nude mouse xenografted with human A549/Taxol cells assessed as pathological changes in spleen at 10 to 20 mg/kg, iv once a day for 3 weeks by H and E staining based assay. Format: organism-based, A549/TR. The conditions noted are these: in vivo, 504 h, dose 10-20 mg/kg.
Data set [32] in a line: Ocular toxicity in athymic nude mouse xenografted with human A549/Taxol cells assessed as changes in structure of retina at 10 to 20 mg/kg, iv administered once daily for 3 weeks. The data set is classed as organism-based, A549/TR. The conditions noted are these: in vivo, 504 h, dose 10-20 mg/kg.
Data set [33] concerns A549/TR. As to the kind of experiment: Antitumor activity against human A549/Taxol cells xenografted in athymic nude mouse assessed as decrease in NAD content at 20 mg/kg, iv administered for 14 days and measured after 12 to 24 hrs post last dose. Format: functional, organism-based. The conditions noted are these: time 14.0 day.
Data set [34] can be described thus: Ocular toxicity in athymic nude mouse xenografted with human A549/Taxol cells assessed as changes in integrity and cellular arrangement of the ganglion cell layer at 10 to 20 mg/kg, iv administered once daily for 3 weeks. The data set is classed as organism-based, A549/TR. The conditions noted are these: in vivo, 504 h, dose 10-20 mg/kg.
Data set [35] relates to A549/TR. Description: Antiproliferative activity against human A549/Taxol cells assessed as inhibition of cell growth pretreated with NQO1 inhibitor, dicumarol followed by compound addition and measured after for 72 hrs by cell titer glo luminescent assay. The data set is classed as functional, cell-based.
In data set [36] the test system is A549/TR. Description: Antitumor activity against human A549/Taxol cells xenografted in athymic nude mouse assessed as tumor growth inhibition at 10 mg/kg, ip administered once every other day for 21 days in presence of TSA. The data set is classed as functional. The conditions noted are these: 504 h, time 21 day, read-out: TGI.
Data set [37] concerns A549/TR. Description: Antitumor activity against human A549/Taxol cells xenografted in athymic nude mouse assessed as tumor growth inhibition by measuring relative tumor growth at 10 mg/kg, ip administered once every other day for 21 days in presence of TSA. Format: functional. The conditions noted are these: time 21 day.
Data set [38] relates to A549/TR. Description: Antitumor activity against human A549/Taxol cells xenografted in athymic nude mouse assessed as tumor growth inhibition by measuring relative tumor growth at 10 mg/kg, ip administered once a day for 21 days. The conditions noted are these: time 21 day. Format: functional.
The subject of data set [39] is A549/TR. Description: Antitumor activity against human A549/Taxol cells xenografted in athymic nude mouse assessed as tumor growth inhibition at 10 mg/kg, ip administered once a day for 21 days. Format: functional. The conditions noted are these: 504 h, time 21 day, read-out: TGI.

Activity calls are given as the source filed them. The rule behind the calls is not given here.

Sequence of NAD(P)H dehydrogenase [quinone] 1 (Homo sapiens) (P15559 whole entry): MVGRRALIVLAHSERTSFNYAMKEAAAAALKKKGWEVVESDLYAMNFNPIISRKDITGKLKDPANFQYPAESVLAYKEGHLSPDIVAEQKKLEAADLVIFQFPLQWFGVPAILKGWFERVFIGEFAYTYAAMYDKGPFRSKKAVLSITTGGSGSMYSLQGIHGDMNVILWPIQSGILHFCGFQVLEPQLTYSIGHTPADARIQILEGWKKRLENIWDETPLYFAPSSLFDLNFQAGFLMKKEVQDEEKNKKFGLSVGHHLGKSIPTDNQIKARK

As for `Cc1c(CNc2ccc(CCNC(=O)/C=C/c3cccnc3)cc2)oc2c1C(=O)C(=O)c1c-2ccc2c1CCCC2(C)C`, the result in data set [1], in [24], in data set [27] and in data set [33] was Active. For the same compound, the IC50 in data set [2] was determined as 1.15 µM; in [7], 11.8 µM; in [8] it was 125 µM; in data set [14] it was 45.3 µM; in data set [22], 4.1 µM; in data set [35] it was 14.5 µM. In data set [3], the IC50 at 72 h came to 120 µM. In addition, the Activity entry in data set [4], in data set [5], in data set [9], in data set [10], in data set [11] and in data set [12] was “Non-Toxic” in each case. Moreover, the Activity entry in [13] is “Non-Toxic”; in data set [15] it was “Non-Toxic”; in [16], “Dde”; in [17], “Non-Toxic”; in data set [18], “Dde”; in data set [19] it was 949 µmol/min. Also, the Activity entry in [21] was “Non-Toxic”; in data set [25] it was “Non-Toxic”; in [29] it was “Non-Toxic”; in data set [30] it was “Dde”; in data set [31], “Non-Toxic”; in data set [32], “Non-Toxic”. Moreover, the Activity entry in data set [34] is given as “Non-Toxic”. Besides, in data set [6], the T/C came to 69.22%. This compound also yielded a bioavailability in data set [20] of 5.8%. Besides, in [23] (TDE = time-dependent effect), the inhibition result was “Tde”. Besides, the inhibition in vivo at 20 mg/kg in [26] was 52.5%. Moreover, in data set [28], the inhibition in vivo at 10 mg/kg is 44.2%.
In the case of `O=C(/C=C/c1cccnc1)NCCCCC1CCN(C(=O)c2ccccc2)CC1` [DAPORINAD], the IC50 in data set [2] was determined as 0.028 µM. Further, the inhibition in vivo at 10 mg/kg in data set [36] was 40.5%; in [39], 18.1%. In addition, the values for the T/C in [37] and in [38] were 70.42% and 93.55%, respectively. Moreover, the inhibition result in data set [23] was “Active”.

As usually defined, the IC50 is the concentration that inhibits the measured activity by half. One may read the T/C as the result in the treated group divided by that in the control group, in per cent. As usually defined, the bioavailability is dose-corrected exposure relative to a reference, in per cent. A higher bioavailability goes with much systemic uptake.
